From US20250340570A1, “COMPOSITIONS USEFUL FOR MODULATING SPLICING” (Skyhawk Therapeutics, Inc., priority 2022, published 2025)

Legend:
total ATXN3 protein = assay: ATXN3 total protein assay (Mesoscale Discovery); type: cell-based; details: Human neuroblastoma SK-N-MC cells, 48 hours incubation, MSD assay
Experimental: Human neuroblastoma SK-N-MC cells were seeded at 10,000 cells/well in 384 well plates one day prior to compound treatment. The concentrations of compounds were tested at appropriate doses ranging from 30 µM to 0.6 nM. After incubation for 48 hours, the cells were lysed with 25.L of lysis buffer containing protease inhibitors, and total ATXN3 protein levels were assessed by Mesoscale Discovery (MSD) assay developed with one pair of and-ATXN3 antibodies. The capture and detect antibodies were raised in mouse and rabbit respectively. Anti-rabbit MSD-ST antibody was used for secondary antibody.
ATXN3 recombinant protein was used for standards. The readouts were captured with 35.L of MSD read buffer and multi-array 384-well high binding plates.

[1] = system: ATXN3 transcripts containing exon 4; assay: ATXN3 quantitative splicing assay (qPCR, E4E5 transcripts containing exon 4); type: cell-based; details: Human neuroblastoma SK-N-MC cells, 24 h treatment, qPCR primers/probe E4E5
Experimental: Human neuroblastoma SK-N-MC cells were plated in 384-well plates at 20,000 cells/well. Twenty-four hours after plating, cells were treated with compounds for 24 h at appropriate concentrations ranging from 30 μM to 0.6 nM (0.3% DMSO). Treated cells were lysed in 15 μL of lysis buffer, and cDNA was synthesized using the Fast Advanced Cells-to-Ct kit. Two μL of each cDNA was used in qPCR reactions to confirm the exon 4 skipped transcripts of ATXN3. A second set of primers/probe E4E5 was used to detect the transcripts containing exon 4. The third set of primers/probe E8E9 was used to detect total gene level of ATXN3. The qPCR reactions were prepared in 384-well plates in 10.L volume, using TaqMan™ Fast Advanced Master Mix with primers and probes shown in the table below. Reactions were run in a Quant Studio 6 qPCR instrument with default settings.
The primers and probes are listed below in Table 5.

Compound	IC50 (total ATXN3 protein)	IC50 [1]
C[C@@H](F)[C@H](N)Cc1sc2c(NCc3cccs3)snc2c1Cl [Compound 75, 7-[(2R,3R)-2-amino-3-fluorobutyl]-8-chloro-4-thenylamino-3,6-dithia-2-azabicyclo[3.3.0]octa-1,4,7-triene]	0.501 to 5 µM	0.101 to 0.5 µM
C[C@H](N)Cc1sc2c(NCc3nccs3)snc2c1Cl [Compound 76, 7-[(S)-2-aminopropyl]-8-chloro-4-{[(1,3-thiazol-2-yl)methyl]amino}-3,6-dithia-2-azabicyclo[3.3.0]octa-1,4,7-triene]	0.101 to 0.5 µM	0.101 to 0.5 µM
CC(=O)N[C@@H](C)Cc1sc2c(NCc3cccs3)snc2c1C [Compound 79, N-[(2S)-1-{6-methyl-3-[(thiophen-2-ylmethyl)amino]thieno[3,2-c][1,2]thiazol-5-yl}propan-2-yl]acetamide]	10 to 40 µM	10 to 40 µM
C[C@H](N)Cc1sc2c(NCc3ccco3)snc2c1C(F)(F)F [Compound 81, 7-[(S)-2-aminopropyl]-4-(furfurylamino)-8-(trifluoromethyl)-3,6-dithia-2-azabicyclo[3.3.0]octa-1,4,7-triene]	0.501 to 5 µM	0.501 to 5 µM
CSc1c(C[C@H](C)N)sc2c(NCc3ccco3)snc12 [Compound 85, 7-[(S)-2-aminopropyl]-4-(furfurylamino)-8-(methylthio)-3,6-dithia-2-azabicyclo[3.3.0]octa-1,4,7-triene]	10 to 40 µM	5 to 10 µM
C[C@H](N)Cc1sc2c(NCc3cccs3)snc2c1CO [Compound 87, {7-[(S)-2-aminopropyl]-4-thenylamino-3,6-dithia-2-azabicyclo[3.3.0]octa-1,4,7-trien-8-yl}methanol]	10 to 40 µM	10 to 40 µM
N[C@H](Cc1sc2c(NCc3cccs3)snc2c1Cl)C(CO)CO [Compound 89, 2-{(R)-1-amino-2-(8-chloro-4-thenylamino-3,6-dithia-2-azabicyclo[3.3.0]octa-1,4,7-trien-7-yl)ethyl}-1,3-propanediol]	0.501 to 5 µM	5 to 10 µM
C[C@H](F)[C@H](N)Cc1sc2c(NCc3sccc3F)snc2c1Br [Compound 93, 7-[(2R,3S)-2-amino-3-fluorobutyl]-8-bromo-4-{[(3-fluoro-2-thienyl)methyl]amino}-3,6-dithia-2-azabicyclo[3.3.0]octa-1,4,7-triene]	0.501 to 5 µM	0.501 to 5 µM
C[C@@H](F)[C@H](N)Cc1sc2c(NCc3sccc3F)snc2c1Cl [Compound 94, 7-[(2R,3R)-2-amino-3-fluorobutyl]-8-chloro-4-{[(3-fluoro-2-thienyl)methyl]amino}-3,6-dithia-2-azabicyclo[3.3.0]octa-1,4,7-triene]	5 to 10 µM	5 to 10 µM
C[C@H](F)[C@H](N)Cc1sc2c(NCc3sccc3F)snc2c1Cl [Compound 95, 7-[(2R,3S)-2-amino-3-fluorobutyl]-8-chloro-4-{[(3-fluoro-2-thienyl)methyl]amino}-3,6-dithia-2-azabicyclo[3.3.0]octa-1,4,7-triene]	0.501 to 5 µM	0.501 to 5 µM
C[C@H](F)[C@H](N)Cc1sc2c(NCc3ccc(F)s3)snc2c1Cl [Compound 96, 7-[(2R,3S)-2-amino-3-fluorobutyl]-8-chloro-4-{[(5-fluoro-2-thienyl)methyl]amino}-3,6-dithia-2-azabicyclo[3.3.0]octa-1,4,7-triene]	5 to 10 µM	0.501 to 5 µM
C=Cc1c(C[C@@H](N)[C@H](C)F)sc2c(NCc3cccs3)snc12 [Compound 97, 7-[(2R,3S)-2-amino-3-fluorobutyl]-4-thenylamino-8-vinyl-3,6-dithia-2-azabicyclo[3.3.0]octa-1,4,7-triene]	0.501 to 5 µM	0.501 to 5 µM
N[C@@H](COC1CC1)Cc1sc2c(NCc3cccs3)snc2c1Br [Compound 100, 7-[(R)-2-amino-3-cyclopropoxypropyl]-8-bromo-4-thenylamino-3,6-dithia-2-azabicyclo[3.3.0]octa-1,4,7-triene]	0.501 to 5 µM	0.501 to 5 µM
C[C@H](N)C(O)c1sc2c(NCc3cccs3)snc2c1Cl (stereo partly drawn) [Compound 102, (2S)-2-amino-1-(8-chloro-4-thenylamino-3,6-dithia-2-azabicyclo[3.3.0]octa-1,4,7-trien-7-yl)-1-propanol]	10 to 40 µM	10 to 40 µM
C[C@H](N)C(O)c1sc2c(NCc3cccs3)snc2c1Br (stereo partly drawn) [Compound 103, (2S)-2-amino-1-{6-bromo-3-[(thiophen-2-ylmethyl)amino]thieno[3,2-c][1,2]thiazol-5-yl}propan-1-ol]	10 to 40 µM	10 to 40 µM
N[C@@H](CF)Cc1sc2c(NCc3nccs3)snc2c1Br [Compound 104, 7-[(R)-2-amino-3-fluoropropyl]-8-bromo-4-{[(1,3-thiazol-2-yl)methyl]amino}-3,6-dithia-2-azabicyclo[3.3.0]octa-1,4,7-triene]	0.501 to 5 µM	0.501 to 5 µM
C[C@H](F)[C@H](N)Cc1sc2c(NCc3nccs3)snc2c1Br [Compound 105, 7-[(2R,3S)-2-amino-3-fluorobutyl]-8-bromo-4-{[(1,3-thiazol-2-yl)methyl]amino}-3,6-dithia-2-azabicyclo[3.3.0]octa-1,4,7-triene]	0.101 to 0.5 µM	0.101 to 0.5 µM
C[C@@H](F)[C@H](N)Cc1sc2c(NCc3nccs3)snc2c1Br [Compound 106, 7-[(2R,3R)-2-amino-3-fluorobutyl]-8-bromo-4-{[(1,3-thiazol-2-yl)methyl]amino}-3,6-dithia-2-azabicyclo[3.3.0]octa-1,4,7-triene]	0.501 to 5 µM	0.501 to 5 µM
COC(c1sc2c(NCc3cccs3)snc2c1Br)[C@H](C)N (stereo partly drawn) [Compound 114, 5-[(2S)-2-amino-1-methoxypropyl]-6-bromo-N-(thiophen-2-ylmethyl)thieno[3,2-c][1,2]thiazol-3-amine]	10 to 40 µM	10 to 40 µM

The remaining lines, values ahead:

IC50 (total ATXN3 protein)	IC50 [1]	Compound
5 to 10 µM	0.501 to 5 µM	N[C@H](Cc1sc2c(NCc3cccs3)snc2c1Br)C1CC(F)(F)C1 [Compound 80, 7-[(R)-2-amino-2-(3,3-difluorocyclobutyl)eth-yl]-8-bromo-4-thenylamino-3,6-dithia-2-azabicyclo[3.3.0]octa-1,4,7-triene]
10 to 40 µM	10 to 40 µM	FC(F)(F)c1csc2c(NCc3ccco3)snc12 [Compound 82, (furfuryl){8-(trifluoromethyl)-3,6-dithia-2-azabicyclo[3.3.0]octa-1,4,7-trien-4-yl}amine]
5 to 10 µM	0.501 to 5 µM	Cc1c(C[C@@H](N)C2CC(F)(F)C2)sc2c(NCc3cccs3)snc12 [Compound 84, 7-[(R)-2-amino-2-(3,3-difluorocyclobutyl)eth-yl]-8-methyl-4-thenylamino-3,6-dithia-2-azabicyclo[3.3.0]octa-1,4,7-triene]
10 to 40 µM	10 to 40 µM	CC(=O)Nc1csc2c(NCc3cccs3)snc12 [Compound 88, N-(4-thenylamino-3,6-dithia-2-azabicyclo[3.3.0]octa-1,4,7-trien-8-yl)acetamide]
10 to 40 µM	10 to 40 µM	CSc1csc2c(NCc3ccco3)snc12 [Compound 90, (furfuryl){8-(methylthio)-3,6-dithia-2-azabicyclo[3.3.0]octa-1,4,7-trien-4-yl}amine]
0.501 to 5 µM	0.501 to 5 µM	C[C@H](N)C(F)(F)c1sc2c(NCc3cccs3)snc2c1Cl [Compound 98, 7-[(S)-2-amino-1,1-difluoropropyl]-8-chloro-4-thenylamino-3,6-dithia-2-azabicyclo[3.3.0]octa-1,4,7-triene]
0.501 to 5 µM	0.501 to 5 µM	C[C@H](N)C(F)(F)c1sc2c(NCc3cccs3)snc2c1Br [Compound 99, 5-[(2S)-2-amino-1,1-difluoropropyl]-6-bromo-N-(thiophen-2-ylmethyl)thieno[3,2-c][1,2]thiazol-3-amine]
0.501 to 5 µM	0.501 to 5 µM	N[C@H](Cc1sc2c(NCc3ccco3)snc2c1Cl)C(F)F [Compound 101, 7-[(R)-2-amino-3,3-difluoropropyl]-8-chloro-4-(furfurylamino)-3,6-dithia-2-azabicyclo[3.3.0]octa-1,4,7-triene]
0.501 to 5 µM	0.501 to 5 µM	C[C@H](N)C(F)(F)c1sc2c(NCc3ccco3)snc2c1Cl [Compound 110, 7-[(S)-2-amino-1,1-difluoropropyl]-8-chloro-4-(furfurylamino)-3,6-dithia-2-azabicyclo[3.3.0]octa-1,4,7-triene]
0.501 to 5 µM	0.501 to 5 µM	N[C@H](Cc1sc2c(NCc3ccco3)snc2c1Br)C(F)F [Compound 111, 7-[(R)-2-amino-3,3-difluoropropyl]-8-bromo-4-(furfurylamino)-3,6-dithia-2-azabicyclo[3.3.0]octa-1,4,7-triene]
10 to 40 µM	10 to 40 µM	Brc1csc2c(NCc3cccs3)snc12 [Compound 113, (thenyl)(8-bromo-3,6-dithia-2-azabicyclo[3.3.0]octa-1,4,7-trien-4-yl)amine]
